The record followed here is patent publication US8173813B2, “Quinolone and tetrahydroquinolone and related compounds having NOS inhibitory activity” (NeurAxon, Inc., priority 2007, dated 2012).

The target in assay [1] is Nitric oxide synthase (endothelial, human recombinant) eNOS (Homo sapiens, UniProt P29474). As to the kind of experiment: Human eNOS enzyme assay ([3H]L-arginine to [3H]L-citrulline). It is filed as biochemical. As to conditions: read-out: heNOS IC50.
The target of assay [2] is Recombinant human inducible NOS (iNOS) (Homo sapiens, UniProt P35228). Briefly: Human iNOS enzyme assay, radiometric. It is filed as biochemical. As to conditions: read-out: hiNOS IC50.
Chain of Recombinant human inducible NOS (iNOS) (P35228 whole entry): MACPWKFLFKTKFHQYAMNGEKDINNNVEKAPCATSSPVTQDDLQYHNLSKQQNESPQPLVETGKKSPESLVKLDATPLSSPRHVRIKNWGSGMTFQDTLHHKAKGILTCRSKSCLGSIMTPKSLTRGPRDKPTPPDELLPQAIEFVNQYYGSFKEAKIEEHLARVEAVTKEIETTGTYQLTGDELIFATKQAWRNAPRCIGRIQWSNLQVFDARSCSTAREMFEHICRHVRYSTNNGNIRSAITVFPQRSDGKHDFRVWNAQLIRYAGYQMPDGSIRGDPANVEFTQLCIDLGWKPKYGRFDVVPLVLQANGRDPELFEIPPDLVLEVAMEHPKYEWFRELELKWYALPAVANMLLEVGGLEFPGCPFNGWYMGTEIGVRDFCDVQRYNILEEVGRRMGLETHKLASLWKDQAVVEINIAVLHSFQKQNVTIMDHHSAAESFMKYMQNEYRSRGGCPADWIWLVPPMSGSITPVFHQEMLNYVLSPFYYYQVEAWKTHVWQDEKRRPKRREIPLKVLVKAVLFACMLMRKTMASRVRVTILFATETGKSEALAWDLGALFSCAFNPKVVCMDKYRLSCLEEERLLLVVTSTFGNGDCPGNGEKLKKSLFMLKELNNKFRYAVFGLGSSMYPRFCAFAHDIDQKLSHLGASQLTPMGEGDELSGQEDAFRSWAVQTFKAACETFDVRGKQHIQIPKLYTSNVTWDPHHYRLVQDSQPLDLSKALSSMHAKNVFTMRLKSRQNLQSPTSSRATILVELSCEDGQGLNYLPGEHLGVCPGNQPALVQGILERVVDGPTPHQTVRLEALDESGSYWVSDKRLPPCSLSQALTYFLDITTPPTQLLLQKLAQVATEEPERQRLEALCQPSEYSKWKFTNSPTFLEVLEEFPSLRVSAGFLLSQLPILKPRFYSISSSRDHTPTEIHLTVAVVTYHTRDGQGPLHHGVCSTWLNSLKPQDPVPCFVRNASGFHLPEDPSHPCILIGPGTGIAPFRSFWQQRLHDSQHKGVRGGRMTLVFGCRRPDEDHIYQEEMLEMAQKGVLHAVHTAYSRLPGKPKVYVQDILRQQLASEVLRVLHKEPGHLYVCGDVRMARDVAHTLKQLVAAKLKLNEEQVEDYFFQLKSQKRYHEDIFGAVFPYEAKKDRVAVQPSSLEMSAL
Assay [3] deals with nNOS (Rat) (Rattus norvegicus, UniProt P29476). Briefly: nNOS (Rat) enzyme assay. It is filed as biochemical. The conditions noted are these: for IC50: read-out: nNOS IC50 (rodent data in parentheses); for Selectivity eNOS/nNOS (rodent data in parentheses): rodent enzymes. Here is the method:
nNOS (Rat), eNOS (Rat) and iNOS (Mouse) Enzyme Assay Recombinant rat or mouse NO synthases (iNOS, eNOS, nNOS) were expressed in Sf9 cells (Sigma), 36 mg prot/ml (Bradford). […] Inhibition of NOS was determined by measuring the formation of L-[3H] citrulline from L-[3H] arginine. […] Stop buffer:100 mM Hepes, pH 5.5, 3 mM EDTA, 3 mM EGTA.

The target of assay [4] is Nitric oxide synthase (neuronal, human recombinant) nNOS (Homo sapiens, UniProt P29475). As to the kind of experiment: Human nNOS enzyme assay ([3H]L-arginine to [3H]L-citrulline). It is filed as biochemical. As to conditions: for Selectivity eNOS/nNOS: human enzymes, ratio of eNOS IC50 to nNOS IC50; for IC50: read-out: hnNOS IC50.
Chain of Nitric oxide synthase (neuronal, human recombinant) nNOS (P29475 whole entry): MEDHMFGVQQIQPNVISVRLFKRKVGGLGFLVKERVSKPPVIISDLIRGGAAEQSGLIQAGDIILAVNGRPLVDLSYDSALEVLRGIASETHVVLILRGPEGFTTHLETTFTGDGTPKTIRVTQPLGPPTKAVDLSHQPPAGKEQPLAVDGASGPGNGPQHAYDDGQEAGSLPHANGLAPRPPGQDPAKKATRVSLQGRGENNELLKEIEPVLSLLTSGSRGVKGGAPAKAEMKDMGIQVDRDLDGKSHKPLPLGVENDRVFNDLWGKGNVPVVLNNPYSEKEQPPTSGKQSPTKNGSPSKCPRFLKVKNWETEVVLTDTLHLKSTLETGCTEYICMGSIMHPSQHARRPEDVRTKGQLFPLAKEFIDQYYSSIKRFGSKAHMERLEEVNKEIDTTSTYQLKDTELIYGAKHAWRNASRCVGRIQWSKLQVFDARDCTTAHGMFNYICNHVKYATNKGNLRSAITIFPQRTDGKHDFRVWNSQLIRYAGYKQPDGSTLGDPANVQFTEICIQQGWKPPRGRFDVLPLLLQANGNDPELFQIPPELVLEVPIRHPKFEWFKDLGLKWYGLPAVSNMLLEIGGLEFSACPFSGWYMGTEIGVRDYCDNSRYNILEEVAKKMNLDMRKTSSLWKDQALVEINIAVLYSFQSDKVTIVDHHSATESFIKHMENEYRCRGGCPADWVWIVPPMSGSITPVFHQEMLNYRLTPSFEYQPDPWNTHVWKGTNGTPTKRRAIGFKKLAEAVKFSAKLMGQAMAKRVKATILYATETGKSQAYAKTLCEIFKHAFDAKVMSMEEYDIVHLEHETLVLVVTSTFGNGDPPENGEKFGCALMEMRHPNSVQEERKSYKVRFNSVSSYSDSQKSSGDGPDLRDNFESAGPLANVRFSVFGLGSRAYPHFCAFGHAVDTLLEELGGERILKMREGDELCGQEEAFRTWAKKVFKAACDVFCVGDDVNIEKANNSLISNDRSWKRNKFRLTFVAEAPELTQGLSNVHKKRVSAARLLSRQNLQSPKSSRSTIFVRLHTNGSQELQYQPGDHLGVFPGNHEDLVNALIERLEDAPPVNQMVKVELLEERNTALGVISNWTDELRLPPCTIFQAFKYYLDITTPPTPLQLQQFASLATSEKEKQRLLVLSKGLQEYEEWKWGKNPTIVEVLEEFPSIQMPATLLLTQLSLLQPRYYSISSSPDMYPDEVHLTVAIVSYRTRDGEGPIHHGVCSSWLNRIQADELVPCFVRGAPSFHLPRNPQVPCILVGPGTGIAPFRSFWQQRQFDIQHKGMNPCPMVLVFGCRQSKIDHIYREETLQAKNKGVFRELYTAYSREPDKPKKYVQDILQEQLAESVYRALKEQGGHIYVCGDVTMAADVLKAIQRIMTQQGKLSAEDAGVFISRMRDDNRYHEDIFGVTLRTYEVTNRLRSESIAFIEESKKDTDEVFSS
Assay [5] deals with eNOS (Rat) (Rattus norvegicus, UniProt Q62600). As to the kind of experiment: eNOS (Rat) enzyme assay. It is filed as biochemical. As to conditions: values in parentheses; for IC50: read-out: eNOS IC50 (rodent data in parentheses).
Chain of eNOS (Rat) (Q62600 2-1202): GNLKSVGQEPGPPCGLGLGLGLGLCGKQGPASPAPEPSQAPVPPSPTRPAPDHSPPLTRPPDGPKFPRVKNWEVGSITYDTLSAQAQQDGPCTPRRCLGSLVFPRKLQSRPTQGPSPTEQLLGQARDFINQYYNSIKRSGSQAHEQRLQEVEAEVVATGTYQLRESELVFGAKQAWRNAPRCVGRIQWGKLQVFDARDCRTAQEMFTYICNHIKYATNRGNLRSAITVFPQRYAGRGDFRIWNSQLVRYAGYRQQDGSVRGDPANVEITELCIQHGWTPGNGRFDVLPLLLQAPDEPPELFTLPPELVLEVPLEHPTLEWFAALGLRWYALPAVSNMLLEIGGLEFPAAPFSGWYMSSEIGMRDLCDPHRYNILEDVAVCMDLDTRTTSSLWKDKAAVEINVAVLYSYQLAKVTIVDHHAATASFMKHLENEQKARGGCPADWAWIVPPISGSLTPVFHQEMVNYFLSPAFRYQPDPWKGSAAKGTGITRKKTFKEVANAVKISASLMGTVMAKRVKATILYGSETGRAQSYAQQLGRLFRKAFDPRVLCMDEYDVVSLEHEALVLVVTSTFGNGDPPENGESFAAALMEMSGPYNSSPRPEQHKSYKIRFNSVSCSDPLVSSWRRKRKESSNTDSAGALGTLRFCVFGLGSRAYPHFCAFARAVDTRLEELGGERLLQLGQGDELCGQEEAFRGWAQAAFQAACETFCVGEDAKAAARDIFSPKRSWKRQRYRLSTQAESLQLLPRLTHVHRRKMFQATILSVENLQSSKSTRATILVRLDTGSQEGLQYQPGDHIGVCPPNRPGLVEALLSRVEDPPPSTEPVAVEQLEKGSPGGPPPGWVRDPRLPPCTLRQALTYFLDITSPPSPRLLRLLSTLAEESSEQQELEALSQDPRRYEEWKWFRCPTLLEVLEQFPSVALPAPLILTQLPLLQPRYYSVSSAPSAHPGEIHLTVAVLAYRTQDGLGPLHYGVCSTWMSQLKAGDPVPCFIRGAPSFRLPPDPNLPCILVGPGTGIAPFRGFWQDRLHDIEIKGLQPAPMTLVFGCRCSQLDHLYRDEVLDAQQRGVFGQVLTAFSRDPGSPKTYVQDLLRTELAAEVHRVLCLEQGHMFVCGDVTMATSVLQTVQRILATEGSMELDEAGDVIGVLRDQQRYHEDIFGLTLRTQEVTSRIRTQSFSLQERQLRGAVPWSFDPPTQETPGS
Assay [6] concerns the target iNOS (Mouse) (Mus musculus, UniProt P29477). As to the kind of experiment: iNOS (Mouse) enzyme assay. It is filed as biochemical. As to conditions: values in parentheses, read-out: iNOS IC50 (rodent data in parentheses). Here is the method: nNOS (Rat), eNOS (Rat) and iNOS (Mouse) Enzyme Assay Recombinant rat or mouse NO synthases (iNOS, eNOS, nNOS) were expressed in Sf9 cells (Sigma), 36 mg prot/ml (Bradford). […] Inhibition of NOS was determined by measuring the formation of L-[3H] citrulline from L-[3H] arginine. […] Stop buffer:100 mM Hepes, pH 5.5, 3 mM EDTA, 3 mM EGTA. Enzyme and inhibitor were pre-incubated for 35 min in the presence of NADPH before addition of arginine to initiate the reaction.

Assay [7] deals with Male, Sprague Dawley rats. Briefly: Porreca model of allodynia (inflammatory soup onto the dura, hindpaw von Frey). It is filed as in vivo, rat.
Assay [8] concerns Rats with L5/L6 spinal nerve ligation. Briefly: Chung Spinal Nerve Ligation model, thermal hyperalgesia. As to conditions: standard dosings 3, 10, and 30 mg/kg injected IP. It is filed as in vivo, rat.
Setting [9] is: human recombinant eNOS, values without parentheses.
The mark [10] stands for this setting: human recombinant nNOS, values without parentheses.
[11] abbreviates: human recombinant iNOS, values without parentheses.
The mark [12] stands for this setting: rat nNOS, values in parentheses.

“And” between values parts separate entries of the source, which are not always exact repeats. Equal entries are not always repeated. Structures can show the parent of a compound that is named as a salt. Where two headings read alike, the source gives them in different places.

Chain of Nitric oxide synthase (endothelial, human recombinant) eNOS (P29474 2-1203): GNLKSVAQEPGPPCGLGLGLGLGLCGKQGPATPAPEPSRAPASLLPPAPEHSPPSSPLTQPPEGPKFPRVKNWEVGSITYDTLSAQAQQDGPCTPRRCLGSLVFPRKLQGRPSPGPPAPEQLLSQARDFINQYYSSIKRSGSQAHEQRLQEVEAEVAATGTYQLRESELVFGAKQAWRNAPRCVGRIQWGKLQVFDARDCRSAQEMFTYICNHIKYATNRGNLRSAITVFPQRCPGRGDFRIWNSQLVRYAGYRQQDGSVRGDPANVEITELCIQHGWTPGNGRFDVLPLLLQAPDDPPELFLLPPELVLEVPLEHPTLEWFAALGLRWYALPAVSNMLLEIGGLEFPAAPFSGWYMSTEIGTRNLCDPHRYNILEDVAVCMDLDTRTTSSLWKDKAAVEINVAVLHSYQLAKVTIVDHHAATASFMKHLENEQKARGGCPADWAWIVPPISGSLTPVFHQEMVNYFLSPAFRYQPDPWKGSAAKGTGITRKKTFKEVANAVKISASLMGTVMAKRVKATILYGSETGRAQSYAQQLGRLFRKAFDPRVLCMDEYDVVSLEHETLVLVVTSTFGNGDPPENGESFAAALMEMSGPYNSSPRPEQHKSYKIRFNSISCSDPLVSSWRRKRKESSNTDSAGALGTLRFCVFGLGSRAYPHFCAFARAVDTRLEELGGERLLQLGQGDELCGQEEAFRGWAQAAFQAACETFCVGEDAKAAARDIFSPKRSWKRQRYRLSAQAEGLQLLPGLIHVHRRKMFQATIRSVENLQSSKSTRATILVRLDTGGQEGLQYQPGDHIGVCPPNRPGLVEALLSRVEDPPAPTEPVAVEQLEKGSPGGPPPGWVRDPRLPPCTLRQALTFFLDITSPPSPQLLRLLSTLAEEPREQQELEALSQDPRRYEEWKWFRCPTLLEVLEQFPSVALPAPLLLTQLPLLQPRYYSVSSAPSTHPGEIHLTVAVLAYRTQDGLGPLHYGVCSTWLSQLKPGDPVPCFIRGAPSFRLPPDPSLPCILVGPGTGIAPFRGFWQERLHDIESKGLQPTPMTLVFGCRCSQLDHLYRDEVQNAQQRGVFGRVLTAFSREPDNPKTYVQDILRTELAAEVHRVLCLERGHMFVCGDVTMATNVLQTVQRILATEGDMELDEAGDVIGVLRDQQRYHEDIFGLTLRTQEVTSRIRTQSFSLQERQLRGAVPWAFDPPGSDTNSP

In general, IC50 refers to the concentration at which inhibition is half-maximal. For `CN1CCCC1CCN1CCCc2cc(NC(=N)c3cccs3)ccc21` (single isomer, unassigned) [Example 24, N-(1-(2-(1-Methylpyrrolidin-2-yl)ethyl)-1,2,3,4-tetrahydroquinolin-6-yl)thiophene-2-carboximidamide], the IC50 in assay [1] (setting [9]) is 15.4 µM; in assay [2], 33.2 µM; in assay [3], 0.12 µM; in assay [4] (setting [10]), 0.17 µM; in assay [5], 22 µM; in assay [6] it was above 100 µM. Further, the “Selectivity eNOS/nNOS (rodent data in parentheses)” value in assay [3] (values in parentheses) was “(183)”. In addition, the “Selectivity eNOS/nNOS” value in assay [4] came to 91.7.

For the compound `CNS(=O)(=O)Cc1ccc2[nH]cc(CCN(C)C)c2c1` [Sumatriptan succinate, reference compound], in assay [7] (1 mg/kg s.c. 5 minutes prior to the soup, measured two hours after IS), the “hindpaw allodynia after inflammatory soup (IS)” value is reported as “prevention of the development of hindpaw allodynia”.

In the case of `N=C(Nc1ccc2c(c1)CCCN2C1CCNCC1)c1cccs1` [Example 47], the IC50 was 156 µM in assay [1] (setting [9]); 6.57 µM in assay [2] (setting [11]); 3.8 µM in assay [3] (setting [12]); 0.6 µM in assay [4] (setting [10]); above 100 µM in assay [5]; 0.34 µM in assay [6]. Moreover, the “Selectivity eNOS/nNOS” value in assay [4] worked out at 260. In assay [8], the “antihyperalgesic effect in the Chung model” value (from here on “antihyperalgesic effect”) was “clear antihyperalgesic effect”.

`N=C(Nc1ccc2c(c1)CCC(=O)N2CCN1CCCCC1)c1cccs1` [Example 1, N-(2-oxo-1-(2-(piperidin-1-yl)ethyl)-1,2,3,4-tetrahydroquinolin-6-yl)thiophene-2-carboximidamide]: the IC50 in assay [1] was determined as 25.2 µM; in assay [2] (setting [11]), 39 µM; in assay [3] (setting [12]), 0.022 µM; in assay [4] it was 0.78 µM; in assay [5], 52 µM; in assay [6] it was 8.5 µM.

Take `CN(C)CCN1CCCc2ccc(NC(=N)c3cccs3)cc21` [Example 32, N-(1-(2-(Dimethylamino)ethyl)-1,2,3,4-tetrahydroquinolin-7-yl)thiophene-2-carboximidamide]: the 50% inhibitory concentration (IC50) in assay [1] (setting [9]) was 37.7 µM; in assay [2] (setting [11]) it was 0.26 µM; in assay [3] (setting [12]), 0.94 µM; in assay [4] (setting [10]), 0.45 µM; in assay [5], above 100 µM; in assay [6] it was above 100 µM. Besides, the “Selectivity eNOS/nNOS” value in assay [4] is on record as 83.2.

On to `CN1CCC(C2C(=O)Nc3ccc(NC(=N)c4cccs4)cc32)CC1` (centres unmarked) [Example 31, N-(3-(1-Methylpiperidin-4-yl)-2-oxoindolin-5-yl)thiophene-2-carboximidamide], for which the IC50 is 22.9 µM in assay [1] (setting [9]); 5.52 µM in assay [2] (setting [11]); 0.99 µM in assay [3] (setting [12]); 0.6 µM in assay [4] (setting [10]); above 100 µM in assay [5]; above 100 µM in assay [6]. The “Selectivity eNOS/nNOS” value in assay [4] is 38.3.

In the case of `CN1CCCC1CCN1CCCc2cc(NC(=N)c3cccs3)ccc21` (centres unmarked) [Example 14, N-(1-(2-(1-methylpyrrolidin-2-yl)ethyl)-1,2,3,4-tetrahydroquinolin-6-yl)thiophene-2-carboximidamide], the IC50 is 17.4 µM in assay [1] (setting [9]); above 100 µM in assay [2]; 0.17 µM in assay [3]; 35 µM in assay [5]; above 100 µM in assay [6]. Further, the “Selectivity eNOS/nNOS (rodent data in parentheses)” value in assay [3] (values in parentheses) was “(206)”. The “Selectivity eNOS/nNOS” value in assay [4] is recorded as 137.

With `N=C(Nc1ccc2c(c1)CCCN2C1CCNC1)c1cccs1` (centres unmarked) [Example 29, N-(1-(Pyrrolidin-3-yl)-1,2,3,4-tetrahydroquinolin-6-yl)thiophene-2-carboximidamide dihydrochloride], the IC50 in assay [1] was 23.5 µM; in assay [2] (setting [11]), 15.6 µM and 6.94 µM; in assay [3] (setting [12]), 0.15 µM; in assay [4] it was 0.25 µM; in assay [5], above 100 µM; in assay [6], above 100 µM.

As to `CN1CCC(N2CCc3cc(NC(=N)c4cccs4)ccc32)CC1` [Example 37, N-(1-(1-Methylpiperidin-4-yl)indolin-5-yl)thiophene-2-carboximidamide], the IC50 in assay [1] (setting [9]) was found to be 50.3 µM; in assay [2] (setting [11]), 4.35 µM; in assay [4] (setting [10]), 1.22 µM. Besides, the “Selectivity eNOS/nNOS” value in assay [4] was found to be 41.2. Further, in assay [8], the “antihyperalgesic effect” value is listed as “clear antihyperalgesic effect”.

For the compound `CC(C)NCCN1CCCc2cc(NC(=N)c3cccs3)ccc21` [Example 61, N-(1-(2-(Isopropylamino)ethyl)-1,2,3,4-tetrahydroquinolin-6-yl)thiophene-2-carboximidamide], the 50% inhibitory concentration (IC50) in assay [1] (setting [9]) turned out to be 30.2 µM; in assay [2] it was 2.9 µM; in assay [3] (setting [12]), 1.1 µM; in assay [4] (setting [10]), 0.26 µM; in assay [5], 6.2 µM; in assay [6], 8 µM. Besides, the “Selectivity eNOS/nNOS (rodent data in parentheses)” value in assay [3] (values in parentheses) was “(5.6)”. Besides, in assay [4], the “Selectivity eNOS/nNOS” value worked out at 116.

With `CNCCN1CCCc2cc(NC(=N)c3cccs3)ccc21.Cl.Cl` [Example 30, N-(1-(2-(Methylamino)ethyl)-1,2,3,4-tetrahydroquinolin-6-yl)thiophene-2-carboximidamide dihydrochloride], the IC50 in assay [1] (setting [9]) was 24.7 µM and 29 µM; in assay [1] it was 40.7 µM; in assay [2] (setting [11]), above 100 µM; in assay [3] (setting [12]) it was 0.192 µM; in assay [4] (setting [10]), 0.57 µM and 0.38 µM and 0.18 µM; in assay [6], above 100 µM. Besides, in assay [5], the “eNOS IC50 (rodent data in parentheses)” value was “(inactive)”.

Regarding `Cl.Cl.N=C(Nc1ccc2c(c1)CCN2C1CCNCC1)c1cccs1` [Example 54, N-(1-(Piperidin-4-yl)indolin-5-yl)thiophene-2-carboximidamide dihydrochloride], the IC50 in assay [1] (setting [9]) was 46 µM; in assay [2] it was above 100 µM; in assay [3] (setting [12]), 2.6 µM; in assay [4] (setting [10]), 0.27 µM; in assay [5] it was 12 µM; in assay [6], 7.53 µM. Further, the “Selectivity eNOS/nNOS” value in assay [4] amounted to 170. In addition, the “antihyperalgesic effect” value in assay [8] is on record as “clear antihyperalgesic effect”.

`CNCCN1CCCc2ccc(NC(=N)c3cccs3)cc21` [Example 44, N-(1-(2-(Methylamino)ethyl)-1,2,3,4-tetrahydroquinolin-7-yl)thiophene-2-carboximidamide]: the IC50 was 22.4 µM in assay [1] (setting [9]); above 100 µM in assay [2] (setting [11]); 0.48 µM in assay [3] (setting [12]); 0.12 µM in assay [4] (setting [10]); 0.63 µM in assay [5]; 4.3 µM in assay [6]. The “Selectivity eNOS/nNOS” value in assay [4] was 187.

Take `N=C(Nc1ccc2c(c1)CCCCN2CCN1CCCC1)c1cccs1` [Example 27, N-(1-(2-(Pyrrolidin-1-yl)ethyl)-2,3,4,5-tetrahydro-1H-benzo[b]azepin-7-yl)thiophene-2-carboximidamide]: the IC50 was 48.7 µM in assay [1] (setting [9]); 54.4 µM in assay [2]; 0.092 µM in assay [3] (setting [12]); 0.35 µM in assay [4] (setting [10]); 42.1 µM in assay [5]; above 100 µM in assay [6]. In addition, in assay [3] (values in parentheses), the “Selectivity eNOS/nNOS (rodent data in parentheses)” value is listed as “(523)”. The “Selectivity eNOS/nNOS” value in assay [4] amounted to 138.

As to `CN(C)CCN1CCCCc2cc(NC(=N)c3cccs3)ccc21.Cl.Cl` [Example 28, N-(1-(2-(Dimethylamino)ethyl)-2,3,4,5-tetrahydro-1H-benzo[b]azepin-7-yl)thiophene-2-carboximidamide dihydrochloride], the half-inhibitory concentration (IC50) in assay [1] was 99.1 µM; in assay [2] (setting [11]), 35.7 µM; in assay [3] (setting [12]) it was 0.12 µM; in assay [4] (setting [10]), 0.44 µM; in assay [5] it was 62.7 µM; in assay [6] it was above 100 µM. Also, in assay [7] (30 mg/kg p.o. 15 minutes prior to IS), the “hindpaw allodynia after inflammatory soup (IS)” value is recorded as “reverses the development of hindpaw allodynia”. Further, in assay [8], the “antihyperalgesic effect” value is on record as “clear antihyperalgesic effect”.

As to `CN(C)CCN1C(=O)CCc2cc(NC(=N)c3cccs3)ccc21` [Example 3, N-(1-(2-(dimethylamino)ethyl)-2-oxo-1,2,3,4-tetrahydroquinolin-6-yl)thiophene-2-carboximidamide], the IC50 is 32 µM in assay [2]; 0.21 µM in assay [3]; 0.58 µM in assay [4]; 65 µM in assay [5]; above 100 µM in assay [6]. Besides, in assay [8], the “antihyperalgesic effect” value is “no antihyperalgesic effect”.
